From patent publication US10828315B2 (Madrigal Pharmaceuticals, Inc., priority 2013, dated 2020)

assay: Mouse plasma stability protocol, up to 1 h (Examples 16-18); settings: % Remaining of parent after 1 h incubation in mouse plasma at 37° C. (10 μM)

SMILES	% Remaining (1 h) [%]
CCNC(=O)c1nnc(-c2cc(C(C)C)c(O)cc2O)n1-c1ccc(S(=O)(=O)N2CCC(C(=O)N3CCN(C(=O)Oc4ccc5nc6c(c(CC)c5c4)Cn4c-6cc5c(c4=O)COC(=O)C5(O)CC)CC3)CC2)cc1 (stereo not drawn) [SDC-TRAP-0383, 4,11-diethyl-4-hydroxy-3,14-dioxo-3,4,12,14-tetrahydro-1H-pyrano[3′,4′:6,7]indolizino[1,2-b]quinolin-9-yl 4-(1-((4-(3-(2,4-dihydroxy-5-isopropylphenyl)-5-(ethylcarbamoyl)-4H-1,2,4-triazol-4-yl)phenyl)sulfonyl)piperidine-4-carbonyl)piperazine-1-carboxylate]	47.6
CCc1c2c(nc3ccc(O)cc13)-c1cc3c(c(=O)n1C2)COC(=O)[C@@]3(CC)OC(=O)CN1CCC(CCc2ccc(-n3c(O)nnc3-c3cc(C(C)C)c(O)cc3O)cc2)CC1 [SDC-TRAP-0106, (S)-4,11-diethyl-9-hydroxy-3,14-dioxo-3,4,12,14-tetrahydro-1H-pyrano[3′,4′:6,7]indolizino[1,2-b]quinolin-4-yl 2-(4-(4-(3-(2,4-dihydroxy-5-isopropylphenyl)-5-hydroxy-4H-1,2,4-triazol-4-yl)phenethyl)piperidin-1-yl)acetate]	114
CCNC(=O)c1nnc(-c2cc(C(C)C)c(O)cc2O)n1-c1ccc(S(=O)(=O)N2CCC(C(=O)N3CCN(C(=O)Oc4ccc5nc6c(c(CC)c5c4)Cn4c-6cc5c(c4=O)COC(=O)C5(O)CC)C(C)C3)CC2)cc1 (stereo not drawn) [SDC-TRAP-0396, 4,11-diethyl-4-hydroxy-3,14-dioxo-3,4,12,14-tetrahydro-1H-pyrano[3′,4:6,7]indolizino[1,2-b]quinolin-9-yl 4-(1-((4-(3-(2,4-dihydroxy-5-isopropylphenyl)-5-(ethylcarbamoyl)-4H-1,2,4-triazol-4-yl)phenyl)sulfonyl)piperidine-4-carbonyl)-2-methylpiperazine-1-carboxylate]	71.6
CCc1c2c(nc3ccc(OC(=O)N4CCN(S(=O)(=O)N5CCC(CCn6ccc7cc(-n8c(O)nnc8-c8cc(C(C)C)c(O)cc8O)ccc76)CC5)CC4)cc13)-c1cc3c(c(=O)n1C2)COC(=O)C3(O)CC (stereo not drawn) [SDC-TRAP-0361, 4,11-diethyl-4-hydroxy-3,14-dioxo-3,4,12,14-tetrahydro-1H-pyrano[3′,4′: 6,7]indolizino[1,2-b]quinolin-9-yl 4-((4-(2-(5-(3-(2,4-dihydroxy-5-isopropylphenyl)-5-hydroxy-4H-1,2,4-triazol-4-yl)-1H-indol-1-yl)ethyl)piperidin-1-yl)sulfonyl)piperazine-1-carboxylate]	25.6
CCNC(=O)c1nnc(-c2cc(C(C)C)c(O)cc2O)n1-c1ccc2c(c1)CN(S(=O)(=O)C1CCN(C(=O)Oc3ccc4nc5c(c(CC)c4c3)Cn3c-5cc4c(c3=O)COC(=O)C4(O)CC)CC1)C2 (stereo not drawn) [SDC-TRAP-0391, 4,11-diethyl-4-hydroxy-3,14-dioxo-3,4,12,14-tetrahydro-1H-pyrano[3′,4:6,7]indolizino[1,2-b]quinolin-9-yl 4-((5-(3-(2,4-dihydroxy-5-isopropylphenyl)-5-(ethylcarbamoyl)-4H-1,2,4-triazol-4-yl)isoindolin-2-yl)sulfonyl)piperidine-1-carboxylate]	15.2

same assay, conditions: mouse plasma, 1 h, 37° C.

SMILES	% Remaining (1 h, 37° C.) [%]
CCNC(=O)c1nnc(-c2cc(C(C)C)c(O)cc2O)n1-c1ccc(OC2CCN(C(=O)C3CCCCN3C(=O)Oc3ccc4nc5c(c(CC)c4c3)Cn3c-5cc4c(c3=O)COC(=O)[C@]4(O)CC)CC2)cc1 (stereo partly drawn) [SDC-TRAP-0216, (S)-4,11-diethyl-4-hydroxy-3,14-dioxo-3,4,12,14-tetrahydro-1H-pyrano[3′,4′:6,7]indolizino[1,2-b]quinolin-9-yl 2-(4-(4-(3-(2,4-dihydroxy-5-isopropylphenyl)-5-(ethylcarbamoyl)-4H-1,2,4-triazol-4-yl)phenoxy)piperidine-1-carbonyl)piperidine-1-carboxylate]	67.7
